According to US20130053430A1, “MODULATION OF CETP EXPRESSION” (Isis Pharmaceuticals, Inc., priority 2010, published 2013):
e = 2'-O-(2-methoxyethyl) (MOE); d = 2'-deoxy (DNA)

How the values were obtained:
human CETP mRNA = assay: Antisense inhibition of human CETP mRNA in primary hepatocytes from huCETP transgenic mice (Example 4); assay type: cell-based, mouse; settings: cytofectin, ~24 hours
Summary of the method: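 Primary hepatocytes from human CETP transgenic mice, 17,500 cells/well, transfected by cytofectin with 100 nM or 200 nM antisense oligonucleotide. After about 24 h, CETP mRNA quantified by real-time PCR, normalised to GAPDH, as percent inhibition versus untreated cells.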

[1] = Liver function, plasma ALT and AST (Example 6); assay type: in vivo, mice; settings: 50 mg/kg s.c. twice per week
Source text: The normal chow-fed mice were divided into three treatment groups. The cholesterol-enriched chow-fed mice were divided into three treatment groups. […] One chow-fed group and one cholesterol-enriched chow-fed group received subcutaneous injections of saline twice weekly for 6 weeks. The saline-injected groups served as the control groups to which the corresponding oligonucleotide-treated groups were compared.
Plasma concentrations of ALT (alanine transaminase) and AST (aspartate transaminase) at weeks 0, 3 and 6 were measured and the results are presented in Tables 18 and 19 expressed in IU/L.

[2] = Plasma cholesterol and triglyceride levels in huApoB/huCETP/mLDLr mouse model (Example 7); assay type: in vivo, mice
Source text: The huApoB^+/−huCETP^+/−mLDLr^+/− mice were divided into five groups of 5-7 mice each. […] The saline-injected group served as the control group to which oligonucleotide-treated groups were compared. […] This group served a negative control for the effects of the antisense oligonucleotides against CETP. The groups are further described in Table 27, and are designated letters A-F, by which they will be referred from henceforth.
HDL and LDL cholesterol were individually measured by HPLC. Triglyceride levels were measured on weeks 0, 3 and 6 with the use of a commercially available triglyceride kit (DCL Triglyceride Reagent; Diagnostic Chemicals Ltd.).

[3] = Plasma glucose, dose response (Example 9); assay type: in vivo, mice
Description: (§1) Another group received subcutaneous injections of control oligonucleotide ISIS 141923 at a dose of 50 mg/kg/week for 6 weeks. One group of mice received subcutaneous injections of PBS for 6 weeks. The PBS-injected group served as the control group to which treatment groups were compared.
Plasma glucose values were determined using a Beckman Glucose Analyzer II (Beckman Coulter) by a glucose oxidase method (Lott, J. A. et al., Clin. Chem. 21: 1754-1760, 1975).

[4] = Liver function, plasma ALT and AST, dose response (Example 9); assay type: in vivo, mice
Description: as §1

[5] = huApoB+/−huCETP+/−mLDLr+/− mice (Groups B-E), ASO 25 mg/kg s.c. twice/week, Week 0
[6] = huApoB+/−huCETP+/−mLDLr+/− mice (Groups B-E), ASO 25 mg/kg s.c. twice/week, Week 3
[7] = huApoB+/−huCETP+/−mLDLr+/− mice (Groups B-E), ASO 25 mg/kg s.c. twice/week, Week 6
[8] = huApoB+/−huCETP−/−mLDLr+/− mice (Group F), 25 mg/kg s.c. twice/week, Week 0
[9] = huApoB+/−huCETP−/−mLDLr+/− mice (Group F), 25 mg/kg s.c. twice/week, Week 3
[10] = huApoB+/−huCETP−/−mLDLr+/− mice (Group F), 25 mg/kg s.c. twice/week, Week 6

With “ISIS 349511: 5-10-5 MOE gapmer CCCGACCTCCTTGGAGACTT (sugars from the 5' end e5 d10 e5, backbone and methylation of C not given here)” the “Percent inhibition of human CETP mRNA” value (human CETP mRNA; 100 nM) was 74%, the “Percent inhibition of human CETP mRNA” value (human CETP mRNA; 200 nM) was 95% and the Alanine transaminase levels ([1]; Cholesterol chow, Week 0) was 28 IU/L. The Aspartate transaminase levels ([1]; Cholesterol chow, Week 0) was 49 IU/L, the Alanine transaminase levels ([1]; Cholesterol chow, Week 3) was 28 IU/L and the Aspartate transaminase levels ([1]; Cholesterol chow, Week 3) was 44 IU/L. The Alanine transaminase levels ([1]; Cholesterol chow, Week 6) was 66 IU/L, the Aspartate transaminase levels ([1]; Cholesterol chow, Week 6) was 123 IU/L and the Alanine transaminase levels ([1]; Normal chow, Week 0) was 16 IU/L. It also gave an Aspartate transaminase levels ([1]; Normal chow, Week 0) of 89 IU/L, an Alanine transaminase levels ([1]; Normal chow, Week 3) of 22 IU/L and an Aspartate transaminase levels ([1]; Normal chow, Week 3) of 47 IU/L. For the same substance, the Alanine transaminase levels ([1]; Normal chow, Week 6) was 22 IU/L, the Aspartate transaminase levels ([1]; Normal chow, Week 6) was 81 IU/L and the “% HDL/total cholesterol” value [2, 5] was 24%. The HDL cholesterol levels [2, 5] was 49 mg/dL, the LDL cholesterol levels [2, 5] was 129 mg/dL and the Total cholesterol levels [2, 5] was 208 mg/dL. For the same substance, the Triglyceride levels [2, 5] was 145 mg/dL, the “% HDL/total cholesterol” value [2, 6] was 30% and the HDL cholesterol levels [2, 6] was 64 mg/dL. It also gave an LDL cholesterol levels [2, 6] of 126 mg/dL, a Total cholesterol levels [2, 6] of 212 mg/dL and a Triglyceride levels [2, 6] of 199 mg/dL. The “% HDL/total cholesterol” value [2, 7] was 35%, the HDL cholesterol levels [2, 7] was 77 mg/dL and the LDL cholesterol levels [2, 7] was 132 mg/dL. It also gave a Total cholesterol levels [2, 7] of 223 mg/dL and a Triglyceride levels [2, 7] of 248 mg/dL.

For “ISIS 141923: CCTTCCCTGAAGGTTCCTCC, 5-10-5 MOE gapmer, a control oligonucleotide which has no known murine target (sugars from the 5' end e5 d10 e5, backbone and methylation of C not given here) [reference compound]”, the Glucose levels ([3]; 50 mg/kg/wk, Week 0) was 311 mg/dL, the Glucose levels ([3]; 50 mg/kg/wk, Week 3) was 256 mg/dL and the Glucose levels ([3]; 50 mg/kg/wk, Week 6) was 305 mg/dL. It also gave an ALT levels ([4]; 50 mg/kg/wk, Week 0) of 27 IU/L, an AST levels ([4]; 50 mg/kg/wk, Week 0) of 26 IU/L and an ALT levels ([4]; 50 mg/kg/wk, Week 3) of 27 IU/L. The AST levels ([4]; 50 mg/kg/wk, Week 3) was 46 IU/L, the ALT levels ([4]; 50 mg/kg/wk, Week 6) was 45 IU/L and the AST levels ([4]; 50 mg/kg/wk, Week 6) was 107 IU/L. For the same substance, the “% HDL/total cholesterol” value [2, 5] was 25%, the HDL cholesterol levels [2, 5] was 50 mg/dL and the LDL cholesterol levels [2, 5] was 123 mg/dL. For the same substance, the Total cholesterol levels [2, 5] was 201 mg/dL, the Triglyceride levels [2, 5] was 137 mg/dL and the “% HDL/total cholesterol” value [2, 6] was 24%. The HDL cholesterol levels [2, 6] was 55 mg/dL, the LDL cholesterol levels [2, 6] was 149 mg/dL and the Total cholesterol levels [2, 6] was 228 mg/dL. The Triglyceride levels [2, 6] was 177 mg/dL, the “% HDL/total cholesterol” value [2, 7] was 31% and the HDL cholesterol levels [2, 7] was 74 mg/dL. It also gave an LDL cholesterol levels [2, 7] of 150 mg/dL, a Total cholesterol levels [2, 7] of 235 mg/dL and a Triglyceride levels [2, 7] of 192 mg/dL.

Work on “ISIS 349517: 5-10-5 MOE gapmer CAGCACTTTAATGCCAGTGG (sugars from the 5' end e5 d10 e5, backbone and methylation of C not given here)” yielded a Glucose levels ([3]; 1.5 mg/kg/wk, Week 0) of 375 mg/dL, a Glucose levels ([3]; 1.5 mg/kg/wk, Week 3) of 288 mg/dL and a Glucose levels ([3]; 1.5 mg/kg/wk, Week 6) of 348 mg/dL. It also gave a Glucose levels ([3]; 5 mg/kg/wk, Week 0) of 354 mg/dL, a Glucose levels ([3]; 5 mg/kg/wk, Week 3) of 287 mg/dL and a Glucose levels ([3]; 5 mg/kg/wk, Week 6) of 346 mg/dL. For the same substance, the Glucose levels ([3]; 15 mg/kg/wk, Week 0) was 339 mg/dL, the Glucose levels ([3]; 15 mg/kg/wk, Week 3) was 271 mg/dL and the Glucose levels ([3]; 15 mg/kg/wk, Week 6) was 329 mg/dL. The Glucose levels ([3]; 50 mg/kg/wk, Week 0) was 339 mg/dL, the Glucose levels ([3]; 50 mg/kg/wk, Week 3) was 269 mg/dL and the Glucose levels ([3]; 50 mg/kg/wk, Week 6) was 255 mg/dL. For the same substance, the ALT levels ([4]; 1.5 mg/kg/wk, Week 0) was 20 IU/L, the AST levels ([4]; 1.5 mg/kg/wk, Week 0) was 38 IU/L and the ALT levels ([4]; 1.5 mg/kg/wk, Week 3) was 18 IU/L. The AST levels ([4]; 1.5 mg/kg/wk, Week 3) was 43 IU/L, the ALT levels ([4]; 1.5 mg/kg/wk, Week 6) was 54 IU/L and the AST levels ([4]; 1.5 mg/kg/wk, Week 6) was 133 IU/L. It also gave an ALT levels ([4]; 5 mg/kg/wk, Week 0) of 26 IU/L, an AST levels ([4]; 5 mg/kg/wk, Week 0) of 40 IU/L and an ALT levels ([4]; 5 mg/kg/wk, Week 3) of 25 IU/L. For the same substance, the AST levels ([4]; 5 mg/kg/wk, Week 3) was 46 IU/L, the ALT levels ([4]; 5 mg/kg/wk, Week 6) was 49 IU/L and the AST levels ([4]; 5 mg/kg/wk, Week 6) was 246 IU/L. It also gave an ALT levels ([4]; 15 mg/kg/wk, Week 0) of 24 IU/L, an AST levels ([4]; 15 mg/kg/wk, Week 0) of 24 IU/L and an ALT levels ([4]; 15 mg/kg/wk, Week 3) of 27 IU/L. The AST levels ([4]; 15 mg/kg/wk, Week 3) was 47 IU/L, the ALT levels ([4]; 15 mg/kg/wk, Week 6) was 36 IU/L and the AST levels ([4]; 15 mg/kg/wk, Week 6) was 70 IU/L. The ALT levels ([4]; 50 mg/kg/wk, Week 0) was 27 IU/L, the AST levels ([4]; 50 mg/kg/wk, Week 0) was 27 IU/L and the ALT levels ([4]; 50 mg/kg/wk, Week 3) was 33 IU/L. For the same substance, the AST levels ([4]; 50 mg/kg/wk, Week 3) was 52 IU/L, the ALT levels ([4]; 50 mg/kg/wk, Week 6) was 76 IU/L and the AST levels ([4]; 50 mg/kg/wk, Week 6) was 171 IU/L. The “Percent inhibition of human CETP mRNA” value (human CETP mRNA; 100 nM) was 85%, the “Percent inhibition of human CETP mRNA” value (human CETP mRNA; 200 nM) was 98% and the Alanine transaminase levels ([1]; Cholesterol chow, Week 0) was 19 IU/L. For the same substance, the Aspartate transaminase levels ([1]; Cholesterol chow, Week 0) was 54 IU/L, the Alanine transaminase levels ([1]; Cholesterol chow, Week 3) was 56 IU/L and the Aspartate transaminase levels ([1]; Cholesterol chow, Week 3) was 72 IU/L. The Alanine transaminase levels ([1]; Cholesterol chow, Week 6) was 76 IU/L, the Aspartate transaminase levels ([1]; Cholesterol chow, Week 6) was 113 IU/L and the Alanine transaminase levels ([1]; Normal chow, Week 0) was 17 IU/L. For the same substance, the Aspartate transaminase levels ([1]; Normal chow, Week 0) was 75 IU/L, the Alanine transaminase levels ([1]; Normal chow, Week 3) was 24 IU/L and the Aspartate transaminase levels ([1]; Normal chow, Week 3) was 61 IU/L. The Alanine transaminase levels ([1]; Normal chow, Week 6) was 158 IU/L, the Aspartate transaminase levels ([1]; Normal chow, Week 6) was 196 IU/L and the “% HDL/total cholesterol” value [2, 5] was 25%. For the same substance, the HDL cholesterol levels [2, 5] was 48 mg/dL, the LDL cholesterol levels [2, 5] was 116 mg/dL and the Total cholesterol levels [2, 5] was 193 mg/dL. The Triglyceride levels [2, 5] was 142 mg/dL, the “% HDL/total cholesterol” value [2, 6] was 40% and the HDL cholesterol levels [2, 6] was 68 mg/dL. The LDL cholesterol levels [2, 6] was 87 mg/dL, the Total cholesterol levels [2, 6] was 171 mg/dL and the Triglyceride levels [2, 6] was 177 mg/dL. For the same substance, the “% HDL/total cholesterol” value [2, 7] was 37%, the HDL cholesterol levels [2, 7] was 72 mg/dL and the LDL cholesterol levels [2, 7] was 109 mg/dL. The Total cholesterol levels [2, 7] was 197 mg/dL, the Triglyceride levels [2, 7] was 210 mg/dL and the “% HDL/total cholesterol” value [2, 8] was 41%. For the same substance, the HDL cholesterol levels [2, 8] was 65 mg/dL, the LDL cholesterol levels [2, 8] was 73 mg/dL and the Total cholesterol levels [2, 8] was 158 mg/dL. For the same substance, the Triglyceride levels [2, 8] was 150 mg/dL, the “% HDL/total cholesterol” value [2, 9] was 37% and the HDL cholesterol levels [2, 9] was 65 mg/dL. The LDL cholesterol levels [2, 9] was 91 mg/dL, the Total cholesterol levels [2, 9] was 175 mg/dL and the Triglyceride levels [2, 9] was 213 mg/dL. The “% HDL/total cholesterol” value [2, 10] was 42%, the HDL cholesterol levels [2, 10] was 75 mg/dL and the LDL cholesterol levels [2, 10] was 95 mg/dL. For the same substance, the Total cholesterol levels [2, 10] was 177 mg/dL and the Triglyceride levels [2, 10] was 201 mg/dL.
